Holding throughout (assay type): in vivo, C57Bl/6 male mice
Assay [1] in a line: Glucose tolerance test (GTT) after 2 weeks of treatment. Particulars: mice, 0.25, 1.5 or 15 mg/Kg 3 times a week for 2 weeks; glucose 2 g/Kg i.p., 0-120 min; optimal response at 1.5 mg/Kg; FIG. 1. As for the experimental part:
Twenty 7-weeks old C57Bl/6 male mice (per experiment) were purchased from Harlan Biotech (Jerusalem, Israel). All mice were maintained in the animal facility room at the company facility. The mice were given standard laboratory chow and water ad libitum and kept in a 12-hour light/dark cycle. All animal experiments were carried out in accordance with the guidelines of the Israeli authority for animal experiments for Care and Use of Laboratory Animals and with the authority specific approval. At the end of experiment (two weeks) a glucose tolerance test (GTT) was performed. The mice were starved overnight prior to administration of the test. Glucose was injected intraperitoneally (i.p.) (2 g/Kg body weight) and blood glucose levels were measured at time-points 0 min, 15 min, 30 min, 60 min, 90 min and 120 min. Blood glucose was determined by sampling tail vein blood using a standard glucometer. Male C57131/6 mice were divided into four groups of 5 mice each. The control group (Group I) received 5% Mannitol IV (200 μL 3 times a week). Group II received a dose of APC2 (0.25 mg/Kg body weight) 3 times a week. Group III received a dose of APC2 (1.5 mg/Kg body weight) 3 times a week. Group IV received a dose of APC2 (15 mg/Kg body weight) 3 times a week. The mice were treated for 2 weeks. […]

The nature of another assay: Plasma glucagon assay. Particulars: mice, 0.25, 1.5 or 15 mg/Kg 3 times a week for 2 weeks; FIG. 2. As for the experimental part:
(§1) Twenty 7-weeks old C57Bl/6 male mice (per experiment) were purchased from Harlan Biotech (Jerusalem, Israel). All mice were maintained in the animal facility room at the company facility. The mice were given standard laboratory chow and water ad libitum and kept in a 12-hour light/dark cycle. All animal experiments were carried out in accordance with the guidelines of the Israeli authority for animal experiments for Care and Use of Laboratory Animals and with the authority specific approval.
Mice tail vein was punctured and blood glucose was assayed using a standard glucometer.
(§2) Male C57131/6 mice were divided into four groups of 5 mice each. The control group (Group I) received 5% Mannitol IV (200 μL 3 times a week). Group II received a dose of APC2 (0.25 mg/Kg body weight) 3 times a week. Group III received a dose of APC2 (1.5 mg/Kg body weight) 3 times a week. Group IV received a dose of APC2 (15 mg/Kg body weight) 3 times a week. The mice were treated for 2 weeks.
In addition to GTT, the mice plasma glucagon levels were assayed as described in the Methods section.

A further assay deals with insulin receptor. The assay can be described thus: Insulin receptor RNA level in splenocytes of treated mice. Particulars: mice, 0.25, 1.5 or 15 mg/Kg 3 times a week for 2 weeks; HPRT control; maximal induction at 1.5 mg/Kg; FIG. 3B. As for the experimental part:
(§3) Mice were sacrificed and dissected. 15-20 mg of appropriate tissue was taken and stabilized in RNA-Save. RNA was extracted from the tissue using an RNeasy mini kit. Homogenization was performed using a 22G needle and syringe. cDNA was prepared from the RNA using EZ-first strand cDNA synthesis kit for RT-PCR. PCR of samples was performed using GoTaq Green Master Mix using appropriate primers (40 cycles, annealing temperature: 62° C.).
as §2
(§4) At the end of the experiment, the mice were sacrificed, the splenocytes were collected from the different mice groups and the RNA levels of HPRT (control), insulin receptor and GLUT4 were assayed.

The next assay has as its system GLUT-4. The assay can be described thus: GLUT-4 RNA level in splenocytes of treated mice. Particulars: mice, 0.25, 1.5 or 15 mg/Kg 3 times a week for 2 weeks; HPRT control; maximal induction at 1.5 mg/Kg; FIG. 3C. As for the experimental part:
as §3, §2, §4

The next assay deals with TNFα. The assay can be described thus: Serum TNFα assay (Bio-Plex). Particulars: mice, 0.25, 1.5 or 15 mg/Kg 3 times a week for 2 weeks; optimal response at 1.5 mg/Kg; FIG. 4A. Here is the method: as §1
(§5) Blood was drawn from each mouse and collected separately in a 1.5 ml vial. After 30 min to 1 hr at room temperature, the clotted blood was centrifuged at 300G for 15 minutes at 4° C. The supernatant was collected to a new 1.5 ml vial and centrifuged again at 300G for 15 minutes. The supernatant was collected to a new 1.5 ml vial and frozen at −70° C. for later analysis. When ready for analysis, the blood vials were quickly thawed in a water bath at room temperature, and then centrifuged at 13,000 G for 10 minutes at 4° C. Samples were analyzed according to the Bio-Plex Pro assay instruction manual using a flat bottom black plate.
(§6) Male CS7Bl/6 mice were divided into four groups of 5 mice each. […]
(§7) At the end of the experiment, TNFα and IL-1β were measured in the mice plasma, and the results are presented in FIGS. 4A and 4B, respectively.

The test system of a further assay is IL-1β. The assay can be described thus: Serum IL-1β assay (Bio-Plex). Particulars: mice, 0.25, 1.5 or 15 mg/Kg 3 times a week for 2 weeks; optimal response at 1.5 mg/Kg; FIG. 4B. As for the experimental part: as §1, §5, §6, §7

“APC-2: isolated polypeptide of SEQ ID NO. 1, hormone-like protein expressed in human heart and lymphocytes (MITSWFSLLPGSQEATATPPFPVVAGRKH; Homo sapiens APC2)”: the “glucose tolerance (blood glucose levels after i.p. glucose)” value in assay [1] is listed as “improved glucose tolerance in a dose-dependent manner”. Also, in the assay “Plasma glucagon assay”, the plasma glucagon levels result is “reduced in a dose-dependent manner”. In addition, the “insulin receptor RNA levels in splenocytes” value with insulin receptor is listed as “up-regulated”. The “GLUT4 RNA levels in splenocytes” value with GLUT-4 is recorded as “up-regulated”.
With “APC-3: isolated polypeptide of SEQ ID NO. 5, hormone-like protein expressed in human spleen, testis, small intestine, colon and kidney (MSSFCLALEVFHPTVSSGRSRPYQIASLETPVLNYSFHHRR; Homo sapiens APC3)”, the TNFα levels result with TNFα is on record as “reduced both inflammatory cytokines levels in a dose-dependent manner”. Besides, in the assay on IL-1β, the IL-1β levels result was “reduced both inflammatory cytokines levels in a dose-dependent manner”.

These data come from US20140155324A1, “NOVEL PEPTIDES AND USES THEREOF IN THERAPEUTIC METHODS” (TWO TO BIOTECH LTD., priority 2011, published 2014).
